Like-named read-outs stand apart in the source and are kept apart here.
How the values were obtained:
[1] = target: T1, EGFR L858R/T790M/C797S (BaF3-LTC cells) (Homo sapiens, UniProt P00533, C797S/L858R/T790M); assay: EGFR degradation HTRF assay, BaF3-LTC cells; assay type: cell-based
T1 construct: expressed in transfected cells; host or cells: BaF3
How it was run: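 Cells treated 16 h at 37 °C, 5% CO2 in medium with 0.2% DMSO; top final concentration 10 uM, 5-fold dilution, 8 doses. Lysates read by HTRF (665/620 nm); degradation % versus DMSO high control, DC50 from four-parameter fit, Dmax as maximal degradation.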

[2] = test system: EGFR Del19/T790M/C797S (H1975-clone #28); assay: EGFR degradation HTRF assay, H1975-clone #28 DTC cells; assay type: cell-based
How it was run: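 Read-out is an HTRF EGFR signal (337 nm excitation, 665/620 nm) from lysates of mutant-EGFR H1975 clones in which only the exogenous EGFR survives knockout. Treatment ran 16h at 37° C. from 10 uM final downward in 5-fold steps. DC50 comes from a logistic fit and Dmax is the maximal degradation.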

[3] = BaF3-LTC cells; EGFR degradation, IC50 (DC50) from curve fit; read-out: DC50(nM) BaF3-LTC
[4] = BaF3-LTC cells; maximum percentage of inhibition (degradation); read-out: Dmax (%) BaF3-LTC
[5] = H1975 # 28 DTC cells; EGFR degradation, IC50 (DC50) from curve fit; read-out: DC50(nM) H1975 # 28 DTC
[6] = H1975 # 28 DTC cells; maximum percentage of inhibition (degradation)

T1 sequence (P00533 25-1210 T790M/C797S/L858R): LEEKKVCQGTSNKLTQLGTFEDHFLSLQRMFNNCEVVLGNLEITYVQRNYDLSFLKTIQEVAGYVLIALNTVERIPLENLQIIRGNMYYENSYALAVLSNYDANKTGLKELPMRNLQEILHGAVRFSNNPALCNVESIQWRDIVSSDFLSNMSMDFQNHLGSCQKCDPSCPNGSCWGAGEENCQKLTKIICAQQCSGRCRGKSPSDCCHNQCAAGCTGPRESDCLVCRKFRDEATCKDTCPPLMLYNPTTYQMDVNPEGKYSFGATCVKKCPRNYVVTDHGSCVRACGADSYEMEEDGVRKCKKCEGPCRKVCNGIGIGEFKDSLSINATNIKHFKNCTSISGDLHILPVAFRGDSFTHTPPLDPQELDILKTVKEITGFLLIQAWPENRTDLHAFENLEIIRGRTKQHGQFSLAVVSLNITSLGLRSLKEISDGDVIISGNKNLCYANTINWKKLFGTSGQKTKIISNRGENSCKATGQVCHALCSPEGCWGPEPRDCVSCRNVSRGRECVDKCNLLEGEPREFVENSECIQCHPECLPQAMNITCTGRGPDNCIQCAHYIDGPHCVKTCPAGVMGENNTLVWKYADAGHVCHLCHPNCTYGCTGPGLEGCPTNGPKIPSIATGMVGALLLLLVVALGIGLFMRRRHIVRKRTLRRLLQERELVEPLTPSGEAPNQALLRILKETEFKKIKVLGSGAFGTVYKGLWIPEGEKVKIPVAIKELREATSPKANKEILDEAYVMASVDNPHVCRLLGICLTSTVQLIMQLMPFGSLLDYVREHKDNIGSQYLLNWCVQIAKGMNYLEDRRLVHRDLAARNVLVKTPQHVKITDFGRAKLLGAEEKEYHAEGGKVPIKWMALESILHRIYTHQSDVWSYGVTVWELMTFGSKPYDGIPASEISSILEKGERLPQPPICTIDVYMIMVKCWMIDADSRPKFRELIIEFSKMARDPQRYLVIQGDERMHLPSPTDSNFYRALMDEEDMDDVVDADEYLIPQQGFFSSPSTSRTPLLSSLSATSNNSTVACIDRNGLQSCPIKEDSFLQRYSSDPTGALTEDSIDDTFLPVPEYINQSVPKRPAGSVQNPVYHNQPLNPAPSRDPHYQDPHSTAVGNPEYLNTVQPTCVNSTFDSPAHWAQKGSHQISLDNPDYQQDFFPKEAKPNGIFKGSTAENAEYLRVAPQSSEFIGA

| DC50 [1, 3] [nM] | Dmax [1, 4] [%] | DC50 [2, 5] [nM] | Compound | Dmax (%) H1975 # 28 DTC [2, 6] [%] | DC50 ([1]; read-out: DC50(nM) BaF3-LTC; BaF3-LTC cells; EGFR degradation, IC50 (DC50) from curve fit) [nM] | Dmax ([1]; read-out: Dmax (%) BaF3-LTC, BaF3-LTC cells; maximum percentage of inhibition (degradation)) [%] | DC50 ([2]; read-out: DC50(nM) H1975 # 28 DTC; H1975 # 28 DTC cells; EGFR degradation, IC50 (DC50) from curve fit) [nM] |
| --- | --- | --- | --- | --- | --- | --- | --- |
| 18 | 87.4 | 0.641 | CCOc1cc(N2CCC(N3CCN(CCCOc4cc(F)c([C@H]5CCC(=O)NC5=O)c(F)c4)CC3)CC2)c(CC)cc1Nc1ncc(Br)c(Nc2ccc3c(=O)n(CC)ncc3c2P(C)(C)=O)n1 [Example 735, (R)-3-(4-(3-(4-(1-(4-((5-bromo-4-((5-(dimethylphosphoryl)-2-ethyl-1-oxo-1,2-dihydrophthalazin-6-yl)amino)pyrimidin-2-yl)amino)-5-ethoxy-2-ethylphenyl)piperidin-4-yl)piperazin-1-yl)propoxy)-2,6-difluorophenyl)piperidine-2,6-dione] | 80.09 | – | – | – |
| 3.66 | 93 | 0.913 | Cc1ccc2c(P(C)(C)=O)c(Nc3nc(Nc4cc(C)c(N5CCC(N6CCN(CCc7cccc8c7n(C)c(=O)n8C7CCC(=O)NC7=O)CC6)CC5)cc4OC4CC4)ncc3Br)ccc2n1 (stereo not shown) [Example 602, 3-(4-(2-(4-(1-(4-((5-bromo-4-((5-(dimethylphosphoryl)-2-methylquinolin-6-yl)amino)pyrimidin-2-yl)amino)-5-cyclopropoxy-2-methylphenyl)piperidin-4-yl)piperazin-1-yl)ethyl)-3-methyl-2-oxo-2,3-dihydro-1H-benzo[d]imidazol-1-yl)piperidine-2,6-dione] | 77.98 | – | – | – |
| 2.6 | 94.3 | 0.691 | CCc1cc(Nc2ncc(Br)c(Nc3ccc4nc(C)ccc4c3P(C)(C)=O)n2)c(OC)cc1N1CCC(N2CCN(C[C@H]3CCN(c4ccc5c(c4)oc(=O)n5C4CCC(=O)NC4=O)C3)CC2)CC1 (stereo partly drawn) [Example 525, 3-(6-((R)-3-((4-(1-(4-((5-bromo-4-((5-(dimethylphosphoryl)-2-methylquinolin-6-yl)amino)pyrimidin-2-yl)amino)-2-ethyl-5-methoxyphenyl)piperidin-4-yl)piperazin-1-yl)methyl)pyrrolidin-1-yl)-2-oxobenzo[d]oxazol-3(2H)-yl)piperidine-2,6-dione] | 50.86 | – | – | – |
| 17.8 | – | 2.08 | CCOc1cc(N2CCC(N3CCN(CC4CN(c5cc(F)c([C@H]6CCC(=O)NC6=O)c(F)c5)C4)CC3)CC2)c(CC)cc1Nc1ncc(Br)c(Nc2ccc3nc(CC)ccc3c2P(C)(C)=O)n1 [Example 541, (R)-3-(4-(3-((4-(1-(4-((5-bromo-4-((5-(dimethylphosphoryl)-2-ethylquinolin-6-yl)amino)pyrimidin-2-yl)amino)-5-ethoxy-2-ethylphenyl)piperidin-4-yl)piperazin-1-yl)methyl)azetidin-1-yl)2,6-difluorophenyl)piperidine-2,6-dione] | 88.77 | – | – | – |
| 16.1 | 82 | 1.02 | CCOc1cc(N2CCC(N3CCN(CCc4c(F)ccc5c4oc(=O)n5C4CCC(=O)NC4=O)CC3)CC2)c(CC)cc1Nc1ncc(Br)c(Nc2cc(F)c3nc(CC)ccc3c2P(C)(C)=O)n1 (stereo not shown) [Example 595, 3-(7-(2-(4-(1-(4-((5-bromo-4-((5-(dimethylphosphoryl)-2-ethyl-8-fluoroquinolin-6-yl)amino)pyrimidin-2-yl)amino)-5-ethoxy-2-ethylphenyl)piperidin-4-yl)piperazin-1-yl)ethyl)-6-fluoro-2-oxobenzo[d]oxazol-3(2H)-yl)piperidine-2,6-dione] | 72.7 | – | – | – |
| 5.22 | 83.6 | 1.66 | CCc1cc(Nc2ncc(Br)c(Nc3ccc4ccnnc4c3P(C)(C)=O)n2)c(OC)cc1N1CCC(N2CCN(C(=O)[C@@H]3CCN(c4cc(F)c([C@H]5CCC(=O)NC5=O)c(F)c4)C3)CC2)CC1 [Example 656, (R)-3-(4-((R)-3-(4-(1-(4-((5-bromo-4-((8-(dimethylphosphoryl)cinnolin-7-yl)amino)pyrimidin-2-yl)amino)-2-ethyl-5-methoxyphenyl)piperidin-4-yl)piperazine-1-carbonyl)pyrrolidin-1-yl)-2,6-difluorophenyl)piperidine-2,6-dione] | 83.91 | – | – | – |
| – | – | – | CCOc1cc(N2CCC(N3CCN(C(=O)[C@@H]4CCN(c5cc(F)cc6c5oc(=O)n6C5CCC(=O)NC5=O)C4)CC3)CC2)c(CC)cc1Nc1ncc(Br)c(Nc2ccc3nc(CC)ccc3c2P(C)(C)=O)n1 (stereo partly drawn) [Example 477, 3-(7-((R)-3-(4-(1-(4-((5-bromo-4-((5-(dimethylphosphoryl)-2-ethylquinolin-6-yl)amino)pyrimidin-2-yl)amino)-5-ethoxy-2-ethylphenyl)piperidin-4-yl)piperazine-1-carbonyl)pyrrolidin-1-yl)-5-fluoro-2-oxobenzo[d]oxazol-3(2H)-yl)piperidine-2,6-dione] | 73.35 | 7.16 | 82.7 | 4.24 |
| 38 | 94.3 | 3.83 | CCOc1ccc2c(P(C)(C)=O)c(Nc3nc(Nc4cc(CC)c(N5CCC(N6CCN(C(=O)[C@@H]7CCN(c8cc(F)c([C@H]9CCC(=O)NC9=O)c(F)c8)C7)CC6)CC5)cc4OC)ncc3Br)ccc2n1 [Example 677, (R)-3-(4-((R)-3-(4-(1-(4-((5-bromo-4-((5-(dimethylphosphoryl)-2-ethoxyquinolin-6-yl)amino)pyrimidin-2-yl)amino)-2-ethyl-5-methoxyphenyl)piperidin-4-yl)piperazine-1-carbonyl)pyrrolidin-1-yl)-2,6-difluorophenyl)piperidine-2,6-dione] | 77.05 | – | – | – |
| 5.39 | 92.9 | 0.354 | CCOc1cc(N2CCC(N3CCN(C(=O)COc4cccc5c4n(C)c(=O)n5C4CCC(=O)NC4=O)CC3)CC2)c(CC)cc1Nc1ncc(Br)c(Nc2ccc3nc(CC)ccc3c2P(C)(C)=O)n1 (stereo not shown) [Example 637, 3-(4-(2-(4-(1-(4-((5-bromo-4-((5-(dimethylphosphoryl)-2-ethylquinolin-6-yl)amino)pyrimidin-2-yl)amino)-5-ethoxy-2-ethylphenyl)piperidin-4-yl)piperazin-1-yl)-2-oxoethoxy)-3-methyl-2-oxo-2,3-dihydro-1H-benzo[d]imidazol-1-yl)piperidine-2,6-dione] | 69.46 | – | – | – |
| 14.2 | 95.1 | 2.2 | CCOc1cc(N2CCC(N3CCN(CCCCc4cc(F)cc5c4oc(=O)n5C4CCC(=O)NC4=O)CC3)CC2)c(CC)cc1Nc1ncc(Br)c(Nc2ccc3nc(CC)ccc3c2P(C)(C)=O)n1 (stereo not shown) [Example 632, 3-(7-(4-(4-(1-(4-((5-bromo-4-((5-(dimethylphosphoryl)-2-ethylquinolin-6-yl)amino)pyrimidin-2-yl)amino)-5-ethoxy-2-ethylphenyl)piperidin-4-yl)piperazin-1-yl)butyl)-5-fluoro-2-oxobenzo[d]oxazol-3(2H)-yl)piperidine-2,6-dione] | 81.77 | – | – | – |
| 4.65 | 96 | 1.37 | CCc1cc(Nc2ncc(Br)c(Nc3ccc4nc(C)ccc4c3P(C)(C)=O)n2)c(OC)cc1N1CCC(N2CCN(C(=O)[C@H]3CC[C@@H](Oc4cc(F)c(C5CCC(=O)NC5=O)c(F)c4)CC3)CC2)CC1 (stereo partly shown) [Example 681, 3-(4-(((1s,4s)-4-(4-(1-(4-((5-bromo-4-((5-(dimethylphosphoryl)-2-methylquinolin-6-yl)amino)pyrimidin-2-yl)amino)-2-ethyl-5-methoxyphenyl)piperidin-4-yl)piperazine-1-carbonyl)cyclohexyl)oxy)-2,6-difluorophenyl)piperidine-2,6-dione] | 77.05 | – | – | – |

Source: patent US20230265116A1, “DEGRADATION OF (EGFR) BY CONJUGATION OF EGFR INHIBITORS WITH E3 LIGASE LIGAND AND METHODS OF USE” (BEIGENE, LTD., priority 2020, published 2023)
